The target in the assay is T1, GR (Homo sapiens, UniProt P04150).
T1 construct: expressed in transfected cells; host or cells: CHO-K1
T1 sequence (P04150 1-777): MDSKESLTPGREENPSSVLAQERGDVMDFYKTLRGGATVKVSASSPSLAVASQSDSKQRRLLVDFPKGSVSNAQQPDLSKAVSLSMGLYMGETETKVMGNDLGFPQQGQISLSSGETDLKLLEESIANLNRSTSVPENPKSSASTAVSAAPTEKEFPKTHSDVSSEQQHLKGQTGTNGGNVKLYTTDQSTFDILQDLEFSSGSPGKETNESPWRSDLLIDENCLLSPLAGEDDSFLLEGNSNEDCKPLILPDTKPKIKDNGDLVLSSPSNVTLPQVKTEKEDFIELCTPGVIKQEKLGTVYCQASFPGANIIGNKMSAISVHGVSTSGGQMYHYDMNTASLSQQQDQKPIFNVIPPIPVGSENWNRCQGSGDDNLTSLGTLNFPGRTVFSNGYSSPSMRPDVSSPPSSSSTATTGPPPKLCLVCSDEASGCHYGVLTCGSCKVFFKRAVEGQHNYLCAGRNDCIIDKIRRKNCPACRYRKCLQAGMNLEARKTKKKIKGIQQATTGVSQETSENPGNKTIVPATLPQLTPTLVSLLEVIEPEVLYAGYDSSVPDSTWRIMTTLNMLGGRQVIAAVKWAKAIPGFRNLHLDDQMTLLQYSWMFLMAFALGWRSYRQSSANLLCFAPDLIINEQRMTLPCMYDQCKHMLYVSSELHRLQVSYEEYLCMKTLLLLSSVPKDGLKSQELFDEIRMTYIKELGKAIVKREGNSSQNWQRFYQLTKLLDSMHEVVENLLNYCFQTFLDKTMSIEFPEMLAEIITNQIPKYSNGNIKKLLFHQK
The experiment in a line: In Vitro GR Luciferase Reporter Assay (antagonist mode, CHO-K1-GR-MMTV-Luc reporter cells). Type of assay: cell-based. The procedure, abridged:
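Antagonist mode: compounds (8 serial 1:5 dilutions) added to GR-MMTV-luciferase CHO-K1 reporter cells co-exposed to 10 nM dexamethasone final, in phenol red-free DMEM plus 10% CSS. After roughly 18-24 h at 37° C, OneGlo luminescence read and IC50 calculated.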
A general note: A reporter such as luciferase makes a cellular process visible.

Setting [1] is: antagonist mode, 10 nM Dexamethasone.

As a reminder, the IC50 is the point on the concentration scale where inhibition reaches its midpoint. A low value points to greater potency.

As to `CCN([C@H]1CCC2=Cc3c(cnn3-c3ccc(F)cc3)C[C@]2(C(=O)c2ccc(C3CC3)cn2)C1)S(=O)(=O)c1ccc(Cl)cc1` [Example 110, 4-chloro-N-((4aS,6S)-4a-(5-cyclopropylpicolinoyl)-1-(4-fluorophenyl)-4,4a,5,6,7,8-hexahydro-1H-benzo[f]indazol-6-yl)-N-ethylbenzenesulfonamide], the IC50 (antagonist assay with 10 nM Dexamethasone, 18-24 hours) was at most 100 nM.
In the case of `O=C(c1cc(C(F)(F)F)ccn1)[C@]12Cc3cnn(-c4ccc(F)cc4)c3C=C1CC[C@H](S(=O)(=O)c1cnn(CC(F)(F)F)n1)C2` [Example 115, ((4aS,6S)-1-(4-Fluorophenyl)-6-((2-(2,2,2-trifluoroethyl)-2H-1,2,3-triazol-4-yl)sulfonyl)-1,4,5,6,7,8-hexahydro-4aH-benzo[f]indazol-4a-yl)(4-(trifluoromethyl)pyridin-2-yl)methanone], the IC50 under setting [1] is at most 100 nM.
Same read-out and setting: the result for `CCn1ncc(S(=O)(=O)[C@H]2CCC3=Cc4c(cnn4-c4ccc(F)cc4)C[C@]3(C(=O)c3ccc(C4CC4)cn3)C2)n1` [Example 123, (5-cyclopropylpyridin-2-yl)((4aS,6S)-6-((2-ethyl-2H-1,2,3-triazol-4-yl)sulfonyl)-1-(4-fluorophenyl)-1,4,5,6,7,8-hexahydro-4aH-benzo[f]indazol-4a-yl)methanone] reads at most 100 nM; that for `CN([C@H]1CCC2=Cc3c(cnn3-c3ccc(F)cc3)C[C@]2(C(=O)c2ccc(C3CC3)cn2)C1)S(=O)(=O)c1ccc(F)cc1` [Example 124, N-((4aS,6S)-4a-(5-cyclopropylpicolinoyl)-1-(4-fluorophenyl)-4,4a,5,6,7,8-hexahydro-1H-benzo[f]indazol-6-yl)-4-fluoro-N-methylbenzenesulfonamide], at most 100 nM.
The same measure, in the same setting: the result for `O=C(c1ccccn1)[C@]12Cc3cnn(-c4ccc(F)cc4)c3C=C1CC[C@](F)(S(=O)(=O)c1ccccc1)C2` [Example 125, ((4aS,6S)-6-fluoro-1-(4-fluorophenyl)-6-(phenylsulfonyl)-1,4,5,6,7,8-hexahydro-4aH-benzo[f]indazol-4a-yl)(pyridin-2-yl)methanone] reads at most 100 nM.
`CCn1ncc(S(=O)(=O)N(C)[C@H]2CCC3=Cc4c(cnn4-c4ccc(F)cc4)C[C@]3(C(=O)c3cc(C(F)(F)F)ccn3)C2)n1` [Example 126, 2-ethyl-N-((4aS,6S)-1-(4-fluorophenyl)-4a-(4-(trifluoromethyl)picolinoyl)-4,4a,5,6,7,8-hexahydro-1H-benzo[f]indazol-6-yl)-N-methyl-2H-1,2,3-triazole-4-sulfonamide]: the half-inhibitory concentration (IC50) under setting [1] was at most 100 nM.
Consider `CCN([C@H]1CCC2=Cc3c(cnn3-c3ccc(F)cc3)C[C@]2(C(=O)c2nccs2)C1)S(=O)(=O)c1ccc(Cl)cc1` [Example 127, 4-chloro-N-ethyl-N-((4aS,6S)-1-(4-fluorophenyl)-4a-(thiazole-2-carbonyl)-4,4a,5,6,7,8-hexahydro-1H-benzo[f]indazol-6-yl)benzenesulfonamide], for which the IC50 under setting [1] is at most 100 nM.
As to `CCN([C@H]1CCC2=Cc3c(cnn3-c3ccc(F)cc3)C[C@]2(C(=O)c2nccs2)C1)S(=O)(=O)c1ccc(F)cc1` [Example 128, N-ethyl-4-fluoro-N-((4aS,6S)-1-(4-fluorophenyl)-4a-(thiazole-2-carbonyl)-4,4a,5,6,7,8-hexahydro-1H-benzo[f]indazol-6-yl)benzenesulfonamide], the IC50 under setting [1] was at most 100 nM.
Regarding `CCn1ncc(S(=O)(=O)N(C)[C@H]2CCC3=Cc4c(cnn4-c4ccc(F)cc4)C[C@]3(C(=O)c3ccc(C(F)(F)F)cn3)C2)n1` [Example 129, 2-ethyl-N-((4aS,6S)-1-(4-fluorophenyl)-4a-(5-(trifluoromethyl)picolinoyl)-4,4a,5,6,7,8-hexahydro-1H-benzo[f]indazol-6-yl)-N-methyl-2H-1,2,3-triazole-4-sulfonamide], under setting [1], the IC50 is at most 100 nM.
Turning to `CCn1ncc(S(=O)(=O)N(C)[C@H]2CCC3=Cc4c(cnn4-c4ccc(F)cc4)C[C@]3(C(=O)c3ccc(C4CC4)cn3)C2)n1` [Example 130, N-((4aS,6S)-4a-(5-cyclopropylpicolinoyl)-1-(4-fluorophenyl)-4,4a,5,6,7,8-hexahydro-1H-benzo[f]indazol-6-yl)-2-ethyl-N-methyl-2H-1,2,3-triazole-4-sulfonamide], the IC50 under setting [1] is at most 100 nM.
Regarding `CCN([C@H]1CCC2=Cc3c(cnn3-c3ccc(F)cc3)C[C@]2(C(=O)c2cc(C(F)(F)F)ccn2)C1)S(=O)(=O)c1cnn(CC)c1` [Example 132, N,1-diethyl-N-((4aS,6S)-1-(4-fluorophenyl)-4a-(4-(trifluoromethyl)picolinoyl)-4,4a,5,6,7,8-hexahydro-1H-benzo[f]indazol-6-yl)-1H-pyrazole-4-sulfonamide], the concentration for half-maximal inhibition (IC50) under setting [1] is at most 100 nM.
With `CN([C@H]1CCC2=Cc3c(cnn3-c3ccc(F)cc3)C[C@]2(C(=O)c2nccs2)C1)S(=O)(=O)c1cnn(C)c1` [Example 133, N-((4aS,6S)-1-(4-fluorophenyl)-4a-(thiazole-2-carbonyl)-4,4a,5,6,7,8-hexahydro-1H-benzo[f]indazol-6-yl)-N,1-dimethyl-1H-pyrazole-4-sulfonamide], the IC50 under setting [1] is at most 100 nM.
On the same count and under the same terms, for `CN([C@H]1CCC2=Cc3c(cnn3-c3ccc(F)cc3)C[C@]2(C(=O)c2ccc(C3CC3)cn2)C1)S(=O)(=O)c1ccn(C)n1` [Example 135, N-((4aS,6S)-4a-(5-cyclopropylpicolinoyl)-1-(4-fluorophenyl)-4,4a,5,6,7,8-hexahydro-1H-benzo[f]indazol-6-yl)-N,1-dimethyl-1H-pyrazole-3-sulfonamide] the value was at most 100 nM; for `CCN([C@H]1CCC2=Cc3c(cnn3-c3ccc(F)cc3)C[C@]2(C(=O)c2ccc(C3CC3)cn2)C1)S(=O)(=O)c1cnn(C)c1` [Example 136, N-((4aS,6S)-4a-(5-cyclopropylpicolinoyl)-1-(4-fluorophenyl)-4,4a,5,6,7,8-hexahydro-1H-benzo[f]indazol-6-yl)-N-ethyl-1-methyl-1H-pyrazole-4-sulfonamide], at most 100 nM.
As for `CN(c1ccc(F)cc1)S(=O)(=O)[C@H]1CCC2=Cc3c(cnn3-c3ccc(F)cc3)C[C@]2(C(=O)c2ccccn2)C1` [Example 137, (4aS,6S)-N,1-bis(4-fluorophenyl)-N-methyl-4a-picolinoyl-4,4a,5,6,7,8-hexahydro-1H-benzo[f]indazole-6-sulfonamide], the half-inhibitory concentration (IC50) under setting [1] is at most 100 nM.
In the case of `CN([C@H]1CCC2=Cc3c(cnn3-c3ccc(F)cc3)C[C@]2(C(=O)c2nccs2)C1)S(=O)(=O)c1ccn(C)n1` [Example 139, N-((4aS,6S)-1-(4-fluorophenyl)-4a-(thiazole-2-carbonyl)-4,4a,5,6,7,8-hexahydro-1H-benzo[f]indazol-6-yl)-N,1-dimethyl-1H-pyrazole-3-sulfonamide], the IC50 under setting [1] is at most 100 nM.
`Cn1cc(S(=O)(=O)N(C2CC2)[C@H]2CCC3=Cc4c(cnn4-c4ccc(F)cc4)C[C@]3(C(=O)c3ccc(C4CC4)cn3)C2)cn1` [Example 141, N-cyclopropyl-N-((4aS,6S)-4a-(5-cyclopropylpicolinoyl)-1-(4-fluorophenyl)-4,4a,5,6,7,8-hexahydro-1H-benzo[f]indazol-6-yl)-1-methyl-1H-pyrazole-4-sulfonamide] registered an IC50 under setting [1] of at most 100 nM.
Turning to `CN([C@H]1CCC2=Cc3c(cnn3-c3ccc(F)cc3)C[C@]2(C(=O)c2nccs2)C1)S(=O)(=O)c1ccc(Cl)cc1` [Example 143, 4-chloro-N-((4aS,6S)-1-(4-fluorophenyl)-4a-(thiazole-2-carbonyl)-4,4a,5,6,7,8-hexahydro-1H-benzo[f]indazol-6-yl)-N-methylbenzenesulfonamide], under setting [1], the concentration for half-maximal inhibition (IC50) was at most 100 nM.
Regarding `CCN([C@H]1CCC2=Cc3c(cnn3-c3ccc(F)cc3)C[C@]2(C(=O)c2cc(C(F)(F)F)ccn2)C1)S(=O)(=O)c1cnn(C)n1` [Example 145, N-ethyl-N-((4aS,6S)-1-(4-fluorophenyl)-4a-(4-(trifluoromethyl)picolinoyl)-4,4a,5,6,7,8-hexahydro-1H-benzo[f]indazol-6-yl)-2-methyl-2H-1,2,3-triazole-4-sulfonamide], the IC50 under setting [1] was at most 100 nM.
As for `CN([C@H]1CCC2=Cc3c(cnn3-c3ccc(F)cc3)C[C@]2(C(=O)c2ccc(C3CC3)cn2)C1)S(=O)(=O)c1ccc(Cl)cc1` [Example 146, 4-chloro-N-((4aS,6S)-4a-(5-cyclopropylpicolinoyl)-1-(4-fluorophenyl)-4,4a,5,6,7,8-hexahydro-1H-benzo[f]indazol-6-yl)-N-methylbenzenesulfonamide], the half-maximal inhibitory concentration (IC50) under setting [1] is at most 100 nM.
Same read-out and setting: the result for `Cn1ccc(S(=O)(=O)N(C2CC2)[C@H]2CCC3=Cc4c(cnn4-c4ccc(F)cc4)C[C@]3(C(=O)c3nccs3)C2)n1` [Example 147, N-cyclopropyl-N-((4aS,6S)-1-(4-fluorophenyl)-4a-(thiazole-2-carbonyl)-4,4a,5,6,7,8-hexahydro-1H-benzo[f]indazol-6-yl)-1-methyl-1H-pyrazole-3-sulfonamide] reads at most 100 nM.

Source of the values: patent US20210122730A1, “GLUCOCORTICOID RECEPTOR MODULATORS” (ORIC Pharmaceuticals, Inc., priority 2017, published 2021).
